Source: ChEMBL document CHEMBL1201862, “PubChem BioAssay data set” (2004)
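Assay format: 96-well plates, 48-hour exposure. Abbreviation: GI50, concentration required for 50% inhibition of growth.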 Calls of active or inactive are those of the source. Rule as the data show it: active = GI50 up to about 1.1 µM and inactive = higher.

What was measured:
Assay in all cases: DTP human tumour cell line panel, 48 h
SF-295 = tested on: SF-295
BT-549 = tested on: BT-549
Hs-578T = tested on: Hs-578T
SW-620 = tested on: SW-620
EKVX = tested on: EKVX
OVCAR-3 = tested on: OVCAR-3
M14 = tested on: M14
UACC-62 = tested on: UACC-62
CCRF-CEM = tested on: CCRF-CEM
NCI-H522 = tested on: NCI-H522
CAKI-1 = tested on: CAKI-1
SR = tested on: SR
SK-MEL-28 = tested on: SK-MEL-28
MDA-MB-231 = tested on: MDA-MB-231
Malme-3M = tested on: Malme-3M
MOLT-4 = tested on: MOLT-4
COLO 205 = tested on: COLO 205
IGROV-1 = tested on: IGROV-1
NCI-H23 = tested on: NCI-H23
OVCAR-4 = tested on: OVCAR-4
DU-145 = tested on: DU-145
OVCAR-5 = tested on: OVCAR-5
T47D = tested on: T47D
SF-539 = tested on: SF-539
MDA-N = tested on: MDA-N
K562 = tested on: K562
HCT-15 = tested on: HCT-15
TK-10 = tested on: TK-10
NCI-H226 = tested on: NCI-H226
HL-60 = tested on: HL-60
SN12C = tested on: SN12C
UO-31 = tested on: UO-31
KM12 = tested on: KM12
786-0 = tested on: 786-0
RPMI-8226 = tested on: RPMI-8226
HCC 2998 = tested on: HCC 2998
HCT-116 = tested on: HCT-116
OVCAR-8 = tested on: OVCAR-8
HOP-62 = tested on: HOP-62
A549 = tested on: A549
MCF7 = tested on: MCF7
SF-268 = tested on: SF-268
NCI-H460 = tested on: NCI-H460
LOX IMVI = tested on: LOX IMVI
NCI/ADR-RES = tested on: NCI/ADR-RES
SK-MEL-2 = tested on: SK-MEL-2
SK-MEL-5 = tested on: SK-MEL-5
SNB-19 = tested on: SNB-19
HT-29 = tested on: HT-29
U-251 = tested on: U-251
ACHN = tested on: ACHN
MDA-MB-435 = tested on: MDA-MB-435
UACC-257 = tested on: UACC-257
HOP-92 = tested on: HOP-92
RXF 393 = tested on: RXF 393
SNB-75 = tested on: SNB-75
SK-OV-3 = tested on: SK-OV-3
PC-3 = tested on: PC-3
A498 = tested on: A498

For `COc1ccc(N[S+]([O-])c2ccc(OC)cc2)cc1` (stereo not given), the GI50 (SF-295) was 24 µM (inactive), the GI50 (BT-549) was 14.8 µM (inactive) and the GI50 (Hs-578T) was 34 µM (inactive). The GI50 (SW-620) was 64.6 µM (inactive), the GI50 (EKVX) was 88.1 µM (inactive) and the GI50 (OVCAR-3) was > 100 µM (inactive). The GI50 (M14) was > 100 µM (inactive), the GI50 (UACC-62) was 14.6 µM (inactive) and the GI50 (CCRF-CEM) was 45.5 µM (inactive). The GI50 (NCI-H522) was 21.5 µM (inactive), the GI50 (CAKI-1) was 52.7 µM (inactive) and the GI50 (SR) was 26.9 µM (inactive). The GI50 (SK-MEL-28) was > 100 µM (inactive), the GI50 (MDA-MB-231) was 37.9 µM (inactive) and the GI50 (Malme-3M) was 25.5 µM (inactive). For the same compound, the GI50 (MOLT-4) was 35.4 µM (inactive), the GI50 (COLO 205) was 72.1 µM (inactive) and the GI50 (IGROV-1) was 5.53 µM (inactive). The GI50 (NCI-H23) was > 100 µM (inactive), the GI50 (OVCAR-4) was > 100 µM (inactive) and the GI50 (DU-145) was 64.9 µM (inactive). The GI50 (OVCAR-5) was > 100 µM (inactive), the GI50 (T47D) was 15.5 µM (inactive) and the GI50 (SF-539) was 14.6 µM (inactive). For the same compound, the GI50 (MDA-N) was 41.3 µM (inactive), the GI50 (K562) was 26.1 µM (inactive) and the GI50 (HCT-15) was 11.2 µM. For the same compound, the GI50 (TK-10) was > 100 µM (inactive), the GI50 (NCI-H226) was 55.5 µM (inactive) and the GI50 (HL-60) was 41.2 µM (inactive). The GI50 (SN12C) was > 100 µM (inactive), the GI50 (UO-31) was 12.5 µM (inactive) and the GI50 (KM12) was 7.8 µM (inactive). For the same compound, the GI50 (786-0) was 84.9 µM (inactive), the GI50 (RPMI-8226) was 47 µM (inactive) and the GI50 (HCC 2998) was 41.3 µM (inactive). The GI50 (HCT-116) was 41.2 µM (inactive), the GI50 (OVCAR-8) was 82.2 µM (inactive) and the GI50 (HOP-62) was 61.8 µM (inactive). The GI50 (A549) was 33.6 µM (inactive), the GI50 (MCF7) was 31.6 µM (inactive) and the GI50 (SF-268) was 6.75 µM (inactive). For the same compound, the GI50 (NCI-H460) was 29 µM (inactive), the GI50 (LOX IMVI) was 17.4 µM (inactive) and the GI50 (NCI/ADR-RES) was 56.6 µM (inactive). For the same compound, the GI50 (SK-MEL-2) was 16.9 µM (inactive), the GI50 (SK-MEL-5) was 18.8 µM (inactive) and the GI50 (SNB-19) was 60.1 µM (inactive). The GI50 (HT-29) was 39.9 µM (inactive), the GI50 (U-251) was 12.5 µM (inactive) and the GI50 (ACHN) was 95.1 µM (inactive). The GI50 (MDA-MB-435) was 15.9 µM (inactive) and the GI50 (UACC-257) was 69 µM (inactive).
In the case of `O=C(Cl)C1=C(c2ccccc2)C1c1ccccc1` (stereo not given), the GI50 (SF-295) is reported as > 100 µM (inactive), the GI50 (BT-549) is reported as > 100 µM (inactive) and the GI50 (Hs-578T) is reported as > 100 µM (inactive). For the same compound, the GI50 (SW-620) was > 100 µM (inactive), the GI50 (EKVX) was > 100 µM (inactive) and the GI50 (HOP-92) was > 100 µM (inactive). The GI50 (OVCAR-3) was > 100 µM (inactive), the GI50 (M14) was > 100 µM (inactive) and the GI50 (UACC-62) was > 100 µM (inactive). For the same compound, the GI50 (RXF 393) was > 100 µM (inactive), the GI50 (CCRF-CEM) was > 100 µM (inactive) and the GI50 (NCI-H522) was > 100 µM (inactive). The GI50 (CAKI-1) was > 100 µM (inactive), the GI50 (SR) was > 100 µM (inactive) and the GI50 (SK-MEL-28) was > 100 µM (inactive). The GI50 (MDA-MB-231) was > 100 µM (inactive), the GI50 (SNB-75) was > 100 µM (inactive) and the GI50 (Malme-3M) was > 100 µM (inactive). For the same compound, the GI50 (MOLT-4) was > 100 µM (inactive), the GI50 (COLO 205) was > 100 µM (inactive) and the GI50 (IGROV-1) was > 100 µM (inactive). For the same compound, the GI50 (NCI-H23) was > 100 µM (inactive), the GI50 (OVCAR-4) was > 100 µM (inactive) and the GI50 (DU-145) was > 100 µM (inactive). The GI50 (OVCAR-5) was > 100 µM (inactive), the GI50 (T47D) was > 100 µM (inactive) and the GI50 (SF-539) was > 100 µM (inactive). For the same compound, the GI50 (SK-OV-3) was > 100 µM (inactive), the GI50 (MDA-N) was > 100 µM (inactive) and the GI50 (K562) was > 100 µM (inactive). For the same compound, the GI50 (HCT-15) was over 100 µM, the GI50 (TK-10) was > 100 µM (inactive) and the GI50 (NCI-H226) was > 100 µM (inactive). The GI50 (HL-60) was > 100 µM (inactive), the GI50 (SN12C) was > 100 µM (inactive) and the GI50 (KM12) was > 100 µM (inactive). The GI50 (786-0) was > 100 µM (inactive), the GI50 (RPMI-8226) was > 100 µM (inactive) and the GI50 (HCC 2998) was > 100 µM (inactive). The GI50 (HCT-116) was > 100 µM (inactive), the GI50 (OVCAR-8) was > 100 µM (inactive) and the GI50 (HOP-62) was > 100 µM (inactive). For the same compound, the GI50 (A549) was > 100 µM (inactive), the GI50 (MCF7) was > 100 µM (inactive) and the GI50 (PC-3) was > 100 µM (inactive). The GI50 (SF-268) was > 100 µM (inactive), the GI50 (NCI-H460) was > 100 µM (inactive) and the GI50 (LOX IMVI) was > 100 µM (inactive). The GI50 (SK-MEL-2) was > 100 µM (inactive), the GI50 (SK-MEL-5) was > 100 µM (inactive) and the GI50 (SNB-19) was > 100 µM (inactive). For the same compound, the GI50 (A498) was > 100 µM (inactive), the GI50 (HT-29) was > 100 µM (inactive) and the GI50 (U-251) was > 100 µM (inactive). For the same compound, the GI50 (ACHN) was > 100 µM (inactive), the GI50 (MDA-MB-435) was > 100 µM (inactive) and the GI50 (UACC-257) was > 100 µM (inactive).
